{"source": "ChEMBL document CHEMBL1201862", "about": "“PubChem BioAssay data set” (2004)", "assay_in_all_cases": "DTP human tumour cell line panel, 48 h", "key": {"NCI-H460": {"test_system": "NCI-H460"}, "RXF 393": {"test_system": "RXF 393"}, "HCT-116": {"test_system": "HCT-116"}, "UACC-257": {"test_system": "UACC-257"}, "SK-MEL-5": {"test_system": "SK-MEL-5"}, "HT-29": {"test_system": "HT-29"}, "MCF7": {"test_system": "MCF7"}, "SF-268": {"test_system": "SF-268"}, "NCI-H522": {"test_system": "NCI-H522"}, "SR": {"test_system": "SR"}, "NCI-H23": {"test_system": "NCI-H23"}, "OVCAR-5": {"test_system": "OVCAR-5"}, "SK-MEL-2": {"test_system": "SK-MEL-2"}, "SK-MEL-28": {"test_system": "SK-MEL-28"}, "M14": {"test_system": "M14"}, "SNB-75": {"test_system": "SNB-75"}, "HCT-15": {"test_system": "HCT-15"}, "CCRF-CEM": {"test_system": "CCRF-CEM"}, "UO-31": {"test_system": "UO-31"}, "K562": {"test_system": "K562"}}, "note": "Several values for one entry are separate records, joined by “and”; a condition that tells them apart may be missing. Equal values may be shown once.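 Growth conditions: 96-well plates. Treatment: test compound, 48 hours, 5 concentrations. Analysis: linear interpolation between bracketing concentrations; unreached endpoints set to highest concentration. The concentration for 50% growth inhibition is given as GI50.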 Activity calls are given as the source filed them. Rule as the data show it: active = GI50 up to about 1.1 µM and inactive = higher.", "data": [{"smiles": "CCOC1=NC(C(F)(F)F)(C(F)(F)F)N=C(N2CCOCC2)O1", "values": [{"measurement": "GI50", "setting": "NCI-H460", "result": "> 100 µM (inactive)"}, {"measurement": "GI50", "setting": "RXF 393", "result": "80.7 µM (inactive)"}, {"measurement": "GI50", "setting": "HCT-116", "result": "> 100 µM (inactive)"}, {"measurement": "GI50", "setting": "UACC-257", "result": "> 100 µM (inactive)"}, {"measurement": "GI50", "setting": "SK-MEL-5", "result": "> 100 µM (inactive)"}, {"measurement": "GI50", "setting": "HT-29", "result": "> 100 µM (inactive)"}, {"measurement": "GI50", "setting": "MCF7", "result": "> 100 µM (inactive)"}, {"measurement": "GI50", "setting": "SF-268", "result": "> 100 µM (inactive)"}, {"measurement": "GI50", "setting": "NCI-H522", "result": "> 100 µM (inactive)"}, {"measurement": "GI50", "setting": "SR", "result": "> 100 µM (inactive)"}, {"measurement": "GI50", "setting": "NCI-H23", "result": "> 100 µM (inactive)"}, {"measurement": "GI50", "setting": "OVCAR-5", "result": "> 100 µM (inactive)"}, {"measurement": "GI50", "setting": "SK-MEL-2", "result": "> 100 µM (inactive)"}, {"measurement": "GI50", "setting": "SK-MEL-28", "result": "> 100 µM (inactive)"}, {"measurement": "GI50", "setting": "M14", "result": "> 100 µM (inactive)"}, {"measurement": "GI50", "setting": "SNB-75", "result": "> 100 µM (inactive)"}, {"measurement": "GI50", "setting": "HCT-15", "result": "> 100", "unit": "µM"}, {"measurement": "GI50", "setting": "CCRF-CEM", "result": "> 100 µM (inactive)"}, {"measurement": "GI50", "setting": "UO-31", "result": "> 100 µM (inactive)"}]}, {"smiles": "CCOC(=O)c1ncoc1[C@H]1COC(C)(C)O1", "values": [{"measurement": "GI50", "setting": "NCI-H460", "result": "> 100 µM (inactive)"}, {"measurement": "GI50", "setting": "RXF 393", "result": "> 100 µM (inactive)"}, {"measurement": "GI50", "setting": "K562", "result": "> 100 µM (inactive)"}, {"measurement": "GI50", "setting": "HCT-116", "result": "> 100 µM (inactive)"}, {"measurement": "GI50", "setting": "UACC-257", "result": "> 100 µM (inactive)"}, {"measurement": "GI50", "setting": "SK-MEL-5", "result": "> 100 µM (inactive)"}, {"measurement": "GI50", "setting": "HT-29", "result": "> 100 µM (inactive)"}, {"measurement": "GI50", "setting": "SF-268", "result": "> 100 µM (inactive)"}, {"measurement": "GI50", "setting": "NCI-H522", "result": "> 100 µM (inactive)"}, {"measurement": "GI50", "setting": "SR", "result": "> 100 µM (inactive)"}, {"measurement": "GI50", "setting": "NCI-H23", "result": "> 100 µM (inactive)"}, {"measurement": "GI50", "setting": "OVCAR-5", "result": "> 100 µM (inactive)"}, {"measurement": "GI50", "setting": "SK-MEL-2", "result": "> 100 µM (inactive)"}, {"measurement": "GI50", "setting": "M14", "result": "> 100 µM (inactive)"}, {"measurement": "GI50", "setting": "SNB-75", "result": "> 100 µM (inactive)"}, {"measurement": "GI50", "setting": "HCT-15", "result": "> 100", "unit": "µM"}, {"measurement": "GI50", "setting": "CCRF-CEM", "result": "> 100 µM (inactive)"}, {"measurement": "GI50", "setting": "UO-31", "result": "> 100 µM (inactive)"}]}, {"smiles": "CCCCCCCCCCSCC(CO)NC(=O)/C=C/c1c(C)[nH]c(=O)[nH]c1=O", "note": "(stereo unspecified)", "values": [{"measurement": "GI50", "setting": "NCI-H460", "result": "1.51 µM (inactive) and 1.76 µM (inactive)"}, {"measurement": "GI50", "setting": "RXF 393", "result": "1.36 µM (inactive) and 2.69 µM (inactive)"}, {"measurement": "GI50", "setting": "K562", "result": "908 nM (active) and 1.12 µM (inactive)"}, {"measurement": "GI50", "setting": "HCT-116", "result": "1.26 µM (inactive) and 1.29 µM (inactive)"}, {"measurement": "GI50", "setting": "SK-MEL-5", "result": "1.16 µM (inactive) and 1.36 µM (inactive)"}, {"measurement": "GI50", "setting": "HT-29", "result": "4.02 µM (inactive) and 7.43 µM (inactive)"}, {"measurement": "GI50", "setting": "MCF7", "result": "753 nM (active) and 1.17 µM (inactive)"}, {"measurement": "GI50", "setting": "SF-268", "result": "684 nM (active) and 723 nM (active)"}, {"measurement": "GI50", "setting": "NCI-H522", "result": "243 nM (active) and 393 nM (active)"}, {"measurement": "GI50", "setting": "OVCAR-5", "result": "> 21.2 µM (inactive) and > 27.5 µM (inactive)"}, {"measurement": "GI50", "setting": "SK-MEL-2", "result": "1.25 µM (inactive) and 804 nM (active)"}, {"measurement": "GI50", "setting": "SK-MEL-28", "result": "1.77 µM (inactive) and 1.85 µM (inactive)"}, {"measurement": "GI50", "setting": "SNB-75", "result": "1.39 µM (inactive) and 1.32 µM (inactive)"}, {"measurement": "GI50", "setting": "CCRF-CEM", "result": "259 nM (active) and 258 nM (active)"}, {"measurement": "GI50", "setting": "UO-31", "result": "10.5 µM (inactive) and 6.84 µM (inactive)"}]}, {"smiles": "COc1cccc(N2C(=O)CSC2c2c[nH]c3ccccc23)c1", "note": "(stereo unspecified)", "values": [{"measurement": "GI50", "setting": "NCI-H460", "result": "> 100 µM (inactive)"}, {"measurement": "GI50", "setting": "RXF 393", "result": "> 100 µM (inactive)"}, {"measurement": "GI50", "setting": "K562", "result": "> 100 µM (inactive)"}, {"measurement": "GI50", "setting": "HCT-116", "result": "> 100 µM (inactive)"}, {"measurement": "GI50", "setting": "UACC-257", "result": "> 100 µM (inactive)"}, {"measurement": "GI50", "setting": "SK-MEL-5", "result": "> 100 µM (inactive)"}, {"measurement": "GI50", "setting": "HT-29", "result": "> 100 µM (inactive)"}, {"measurement": "GI50", "setting": "MCF7", "result": "> 100 µM (inactive)"}, {"measurement": "GI50", "setting": "SF-268", "result": "> 100 µM (inactive)"}, {"measurement": "GI50", "setting": "NCI-H522", "result": "97.9 µM (inactive)"}, {"measurement": "GI50", "setting": "SR", "result": "> 100 µM (inactive)"}, {"measurement": "GI50", "setting": "NCI-H23", "result": "> 100 µM (inactive)"}, {"measurement": "GI50", "setting": "OVCAR-5", "result": "> 100 µM (inactive)"}, {"measurement": "GI50", "setting": "SK-MEL-28", "result": "> 100 µM (inactive)"}, {"measurement": "GI50", "setting": "M14", "result": "> 100 µM (inactive)"}, {"measurement": "GI50", "setting": "SNB-75", "result": "> 100 µM (inactive)"}, {"measurement": "GI50", "setting": "HCT-15", "result": "> 100", "unit": "µM"}, {"measurement": "GI50", "setting": "CCRF-CEM", "result": "> 100 µM (inactive)"}, {"measurement": "GI50", "setting": "UO-31", "result": "> 100 µM (inactive)"}]}]}
